Laboratory results from patent publication US12492378B2, “Stepwise method of producing various types of cells from pluripotent stem cells” (Kyoto University, priority 2018, dated 2025).

How the values were obtained:
PAX3-GFP iPS cells = test: Induction of presomitic mesoderm cells (PSM) from human iPS cells, FACS for DLL1 and PAX3-GFP; format: cell-based; settings: single factor, 10 μM CHIR99021, CDM basal medium, 4 days
Description: Fluorescence-activated cell sorting (FACS) was performed by AriaII (BD) according to the manufacturer's protocol. Intracellular flow cytometry analysis was also performed by AriaII (BD) according to the manufacturer's protocol. Briefly, cells were fixed and permeabilized prior to the antibody staining. The expression rate of each differentiation marker was calculated by comparing that of iPSCs or induced somite cells. To minimize the effect of growth factors secreted from feeder cells or contained in a culture medium, SNL feeders were removed from an iPS cell culture, and human iPS cells were seeded onto matrigel (BD, Bedford, MA, USA) coated dishes (1.3×10^6 cells/10-cm dish). The iPS cells were cultured under feeder-free condition with […]1 medium (STEMCELL Technology, Vancouver, Canada) for 3 days. The iPS cells were then cultured in CDM basal medium supplemented with one of four factors or the appropriate combination of the four factors for 4 days (FIG. 2B). The added factors are as follows. […] To detect the induction efficiency of presomitic mesoderm cells, the cell population positive for DLL1, a surface marker for a presomitic mesoderm cell and the posterior portion of somite, and negative for PAX3-GFP, showing a newly formed and segmented somite cell, were detected by FACS (FIG. 2C). […]

[1] = tested on: DLL1+ presomitic mesoderm cells; test: Induction of somite cells (SM) from presomitic mesoderm cells; format: cell-based, human; settings: for PAX3-GFP+ cells: four days culture, FACS
Description: IPS cells were cultured in SCDF condition of Example 1 for 4 days, and a total of 1.0×10^5 DLL1^+ presomitic mesoderm cells sorted by FACS were seeded onto one well of a matrigel-coated 12-well plate and subsequently underwent the induction of somite cells (FIG. 3A). The induction of somite cells was carried out for 4 days in CDM basal medium supplemented with SB431542 and/or 5 μM CHIR99021. The medium was changed at day 3 of the induction of somite cells. The expression of PAX3-GFP was used as a somite cell marker. The added factors and their concentrations are as follows: • S10: SB431542 10 μM • C1: CHIR99021 1 μM • C5: […]20: FGF2 20 ng/ml • […]: IWR1 10 μM

dermomyotome cells = test: Induction of myotome cells (MYO) from dermomyotome cells; format: cell-based, human; settings: 5 μM CHIR99021, 30 days; number of MYOD- and MYOG-positive cells
Description: We next tried to induce myotome cells directly from dermomyotome cells obtained in the above (3). The medium of the dermomyotome cell culture obtained in (3) was replaced with CDM basal medium supplemented with 5 μM of CHIR99021, and the cell culture was further cultured. The medium was changed every 3 days, and the culture was performed for 30 days. A small amount of cultured cells was collected every 6 days, and the expression of myogenic markers MYOD, MYOG and PAX7 was examined over time. Induction of the myogenic markers was found 18 to 30 days after the replacement of the medium. On the other hand, the expression of the dermomyotome cell marker ALX4 was decreased in a time dependent manner (FIG. 4D). The expression of MYOD and MYOG was also determined by immunocytochemistry. The induction efficiency from dermomyotome cells into myotome cells was estimated at approximately 22% based on the number of MYOD- and MYOG-positive cells.

[2] = tested on: somite cell-derived mesenchymal stromal cells induced from FOP-iPS cells; test: 2D chondrogenic induction of FOP-iPS cell-derived mesenchymal stromal cells; format: cell-based, human; settings: 5 days
Description: (§1) The GAG content in pellets was quantified with the Blyscan™ Glycosaminoglycan Assay Kit (Biocolor Ltd., Belfast, UK). The DNA content was quantified using the PicoGreen™ dsDNA Quantitation Kit (Invitrogen).
(§2) A total of 1.5×10^5 induced mesenchymal stromal cells or sclerotome cells were suspended in 5 μL of chondrogenic basal. medium (DMEM: F12 (Invitrogen), 1% (v/v) ITS+Premix (BD Biosciences, San Jose, CA, USA), 0.1 μM dexamethasone (WAKO), 0.17 mM L-Ascorbic acid 2-phosphate sesquimagnesium salt hydrate (Sigma), 0.35 mM Proline (Sigma), 0.15% (v/v) glucose (Sigma), 1 mM Na-pyruvate, 2 mM GlutaMax (Invitrogen) and 1% (v/v) FBS), and subsequently transferred to one well of a fibronectin-coated 24-well plate (BD Biosciences). After one hour of incubation at 37° C. in 5% CO2, cells formed micromass.
(§3) Then, the micromass was cultured in 1 ml of chondrogenic basal medium supplemented with 10 ng/ml BMP7 (R&D) and 10 ng/ml TGFβ3 (R&D) with or without 30 ng/ml Activin A (R&D) at 37° C. in 5% CO2 for 5 days.
The micromass induced from somite cell-derived mesenchymal stromal cells from FOP-iPS cells was also cultured in 1 mL of chondrogenic basal medium supplemented with 30 ng/ml Activin A (R&D) with/without 10 nM R667 (Toronto Research Chemicals, Toronto, ON, Canada) or 10 nM Rapamycin (MedChem Express, Monmouth Junction, NJ, USA).
(§4) Differentiation properties of obtained cells were analyzed by RT-qPCR analysis, glycosaminoglycans (GAG) quantification and Alcian Blue staining. Briefly, induced cells were fixed for 30 minutes with 4% paraformaldehyde (WAKO), rinsed with PBS, and then stained overnight with Alcian Blue solution (1% Alcian Blue, pH1) (MUTO PURE CHEMICAL CO., LTD, Tokyo, Japan).

heterotopic ossification = settings: reported, Hino et al., 2017; cited from earlier work
[3] = tested on: somite cell-derived sclerotome cells; test: 2D chondrogenic induction of FOP-iPS cell-derived sclerotome cells; format: cell-based, human; settings: 30 ng/ml Activin A, 5 days
Description: as §1, §2, §3, §4

Cc1c[nH]c(-c2cnc(NCCNc3ccc(C#N)cn3)nc2-c2ccc(Cl)cc2Cl)n1 [CHIR99021, 6-[2-[4-(2,4-Dichlorophenyl)-5-(4-methyl-1H-imidazol-2-yl)pyrimidin-2-ylamino]ethylamino]pyridine-3-carbonitrile]
DLL1+/PAX3-GFP- cells (induction efficiency) (PAX3-GFP iPS cells): 56.3±3.1% | PAX3-GFP+ cells ([1]; 5 μM CHIR99021 (C5)): 70.7±0.1% | PAX3-GFP+ cells ([1]; 10 μM CHIR99021 (C10)): 0.3±0.0% | PARAXIS and MEOX1 expressions ([1]; S10C5 compared with S10I10 or S10, 4 days, RT-qPCR): highly induced | PARAXIS-expressing cells ([1]; immunohistochemistry using anti-PARAXIS (TCF15) antibody): found | induction efficiency from dermomyotome cells into myotome cells (dermomyotome cells): approximately 22%

CC1(C)CCC(C)(C)c2cc(Cn3cccn3)c(/C=C/c3ccc(C(=O)O)cc3)cc21 [R667]
enhanced chondrogenesis by Alcian Blue staining ([2]; 10 nM, with 30 ng/ml Activin A): inhibition of the enhanced chondrogenesis was also confirmed | enhancement of glycosaminoglycan (GAG) production ([2]; 10 nM, with 30 ng/ml Activin A, GAG/DNA): significantly inhibited | enhancement of chondrogenic marker expressions ([2]; 10 nM, with 30 ng/ml Activin A, RT-qPCR): significantly inhibited | inhibition of heterotopic ossification (heterotopic ossification): potent inhibitors

NC(=O)c1ccc(-c2nc(-c3ccc4c(c3)OCO4)c(-c3ccccn3)[nH]2)cc1 [SB431542]
PAX3-GFP+ cells ([1]; 10 μM SB431542 (S10)): 52.1±0.8%

B1: Activin A: a stimulator of mutant ACVR1; R&D (protein, UniProt P08476 311-426, looked up)
Inhibin beta A chain: GLECDGKVNICCKKQFFVSFKDIGWNDWIIAPSGYHANYCEGECPSHIAGTSGSSLSFHSTVINHYRMRGHSPFANLKSCCVPTKLRPMSMLYYDDGQNIIKKDIQNMIVEECGCS
modifications: Inhibin beta A chain
notes: a stimulator of mutant ACVR1; R&D
chondrogenesis (chondrogenic markers, GAG production) in FOP-iPS-derived vs resFOP-iPS-derived cells ([2]; 30 ng/ml Activin A): enhancement of the chondrogenesis was observed | chondrogenic marker expressions, GAG production and Alcian Blue staining in FOP-iPS-derived vs resFOP-iPS-derived cells [3]: no difference
